In patent US9688702B2, “Alpha-amino boronic acid derivatives, selective immunoproteasome inhibitors” (Ares Trading S.A, priority 2011, dated 2017):

Key:
[1] = molecular target: LMP7 (purified human immuno proteasome) (Homo sapiens, UniProt P28062); assay: Determination of LMP7 activity (fluorescence intensity assay, Suc-LLVY-AMC); type: biochemical; settings: for IC50: purified human immuno proteasome 0.5 nM, 40 μM Suc-LLVY-AMC, 37° C.
Procedure: Measurement of LMP7 inhibition is performed in 384 well format based on fluorescence intensity assay.
(§1) Purified human immuno proteasome (0.5 nM) and serial diluted compounds in DMSO (range of concentrations from 10 μM to 38 pM) or controls (0.5% DMSO) are incubated for 30 minutes at 37° C. in assay buffer containing 50 mM Tris pH 7.4 and 0.03% SDS. The reaction is initiated by the addition of the fluorogenic peptide substrate, Suc-LLVY-AMC (Bachem I-1395), at a concentration of 40 μM. After 90 minutes of incubation at 37° C., fluorescence intensity is measured at λex=350 nm and λem=450 nm with a fluorescence reader (BMG Pherastar reader or equivalent).
as §1, with “proteasome (0.25” for “proteasome (0.5”

[2] = molecular target: Beta5 (purified human constitutive proteasome) (Homo sapiens, UniProt P28074); assay: Determination of Beta5 activity (fluorescence intensity assay, Suc-LLVY-AMC); type: biochemical; settings: purified human constitutive proteasome 1.0 nM, 40 μM Suc-LLVY-AMC, 37° C.
Procedure: Measurement of Beta5 inhibition is performed in 384 well format based on fluorescence intensity assay.
as §1, with “human constitutive” for “human immuno”, “proteasome (1.0” for “proteasome (0.5”, “(Bachem 1-1395),” for “(Bachem I-1395),”

`O=C(CCn1cnc2ccccc21)N[C@@H](Cc1ccc(OC(F)(F)F)cc1)B(O)O` [Example 51, (R)-(1-(3-(1H-benzo[d]imidazol-1-yl)propanamido)-2-(4-(trifluoromethoxy)phenyl)ethyl)boronic acid] was tested, and the “Selectivity LMP7 vs Beta5” value [1] was “+ (+: Selectivity < 10)”, the IC50 [1] was under 50 nM and the IC50 [2] was 50 to 500 nM.

In the case of `CCc1cccc(C[C@H](NC(=O)CCn2cc(-c3ccccc3)nn2)B(O)O)c1` [Example 52, (R)-(2-(3-ethylphenyl)-1-(3-(4-phenyl-1H-1,2,3-triazol-1-yl)propanamido)ethyl)boronic acid], the “Selectivity LMP7 vs Beta5” value [1] is reported as “+++ (+++: Selectivity > 30)”, the IC50 [1] is reported as under 50 nM and the IC50 [2] is reported as 50 to 500 nM.

In the case of `COc1ccc(C[C@H](NC(=O)CCn2cnc3ccccc32)B(O)O)cc1C(F)(F)F` [Example 53, (R)-(1-(3-(1H-benzo[d]imidazol-1-yl)propanamido)-2-(4-methoxy-3-(trifluoromethyl)phenyl)ethyl)boronic acid], the “Selectivity LMP7 vs Beta5” value [1] is reported as “+ (+: Selectivity < 10)”, the IC50 [1] is reported as under 50 nM and the IC50 [2] is reported as 50 to 500 nM.

For `CCc1cccc(C[C@H](NC(=O)CCn2c(C)nc3ccccc32)B(O)O)c1` [Example 54, (R)-(2-(3-ethylphenyl)-1-(3-(2-methyl-1H-benzo[d]imidazol-1-yl)propanamido)ethyl)boronic acid], the “Selectivity LMP7 vs Beta5” value [1] was “++ (++: 10 < Selectivity < 30)”, the IC50 [1] was under 50 nM and the IC50 [2] was 50 to 500 nM.

For `Cc1nc2ccccc2n1CCC(=O)N[C@@H](Cc1ccsc1)B(O)O` [Example 55, (R)-(1-(3-(2-methyl-1H-benzo[d]imidazol-1-yl)propanamido)-2-(thiophen-3-yl)ethyl)boronic acid], the “Selectivity LMP7 vs Beta5” value [1] was “+ (+: Selectivity < 10)”, the IC50 [1] was under 50 nM and the IC50 [2] was 50 to 500 nM.

With `COc1ccc(C[C@H](NC(=O)CCc2noc(-c3ccccc3)n2)B(O)O)cc1C(F)(F)F` [Example 56, (R)-(2-(4-methoxy-3-(trifluoromethyl)phenyl)-1-(3-(5-phenyl-1,2,4-oxadiazol-3-yl)propanamido)ethyl)boronic acid] the “Selectivity LMP7 vs Beta5” value [1] was “++ (++: 10 < Selectivity < 30)”, the IC50 [1] was 50 to 500 nM and the IC50 [2] was 500 to 5000 nM.

For `COc1cc(F)cc(C[C@H](NC(=O)CCn2cnc3ccccc32)B(O)O)c1` [Example 57, (R)-(1-(3-(1H-benzo[d]imidazol-1-yl)propanamido)-2-(3-fluoro-5-methoxyphenyl)ethyl)boronic acid], the “Selectivity LMP7 vs Beta5” value [1] was “++ (++: 10 < Selectivity < 30)”, the IC50 [1] was under 50 nM and the IC50 [2] was 50 to 500 nM.

With `CCc1cccc(C[C@H](NC(=O)CCc2cn(-c3ccccc3)nn2)B(O)O)c1` [Example 58, (R)-(2-(3-ethylphenyl)-1-(3-(1-phenyl-1H-1,2,3-triazol-4-yl)propanamido)ethyl)boronic acid] the “Selectivity LMP7 vs Beta5” value [1] was “+++ (+++: Selectivity > 30)”, the IC50 [1] was 50 to 500 nM and the IC50 [2] was over 5000 nM.

`O=C(CCn1cnc2ccccc21)N[C@@H](Cc1cccc(OC(F)(F)F)c1)B(O)O` [Example 59, (R)-(1-(3-(1H-benzo[d]imidazol-1-yl)propanamido)-2-(3-(trifluoromethoxy)phenyl)ethyl)boronic acid] was tested, and the “Selectivity LMP7 vs Beta5” value [1] was “+ (+: Selectivity < 10)”, the IC50 [1] was under 50 nM and the IC50 [2] was 50 to 500 nM.

`O=C(CCc1noc(-c2ccccc2)n1)N[C@@H](Cc1cccc(OC(F)(F)F)c1)B(O)O` [Example 60, (R)-(1-(3-(5-phenyl-1,2,4-oxadiazol-3-yl)propanamido)-2-(3-(trifluoromethoxy)phenyl)ethyl)boronic acid] was tested, and the “Selectivity LMP7 vs Beta5” value [1] was “++ (++: 10 < Selectivity < 30)”, the IC50 [1] was 50 to 500 nM and the IC50 [2] was 500 to 5000 nM.

In the case of `COc1cc(F)cc(C[C@H](NC(=O)CCc2noc(-c3ccccc3)n2)B(O)O)c1` [Example 61, (R)-(2-(3-fluoro-5-methoxyphenyl)-1-(3-(5-phenyl-1,2,4-oxadiazol-3-yl)propanamido)ethyl)boronic acid], the “Selectivity LMP7 vs Beta5” value [1] is reported as “+++ (+++: Selectivity > 30)”, the IC50 [1] is reported as under 50 nM and the IC50 [2] is reported as 500 to 5000 nM.

For `O=C(N[C@@H](Cc1ccsc1)B(O)O)[C@H](Cc1ccccc1)Cc1cn(-c2ccccc2)nn1` [Example 62, ((R)-1-((R)-2-benzyl-3-(1-phenyl-1H-1,2,3-triazol-4-yl)propanamido)-2-(thiophen-3-yl)ethyl)boronic acid], the “Selectivity LMP7 vs Beta5” value [1] was “++ (++: 10 < Selectivity < 30)”, the IC50 [1] was under 50 nM and the IC50 [2] was 50 to 500 nM.

For `O=C(N[C@@H](Cc1ccsc1)B(O)O)[C@@H](Cc1ccccc1)Cc1cn(-c2ccccc2)nn1` [Example 63, ((R)-1-((S)-2-benzyl-3-(1-phenyl-1H-1,2,3-triazol-4-yl)propanamido)-2-(thiophen-3-yl)ethyl)boronic acid], the “Selectivity LMP7 vs Beta5” value [1] was “++ (++: 10 < Selectivity < 30)”, the IC50 [1] was under 50 nM and the IC50 [2] was under 50 nM.

`O=C(CCn1cnc2ccccc21)N[C@@H](Cc1ccc(F)c(C(F)(F)F)c1)B(O)O` [Example 64, (R)-(1-(3-(1H-benzo[d]imidazol-1-yl)propanamido)-2-(4-fluoro-3-(trifluoromethyl)phenyl)ethyl)boronic acid] was tested, and the “Selectivity LMP7 vs Beta5” value [1] was “++ (++: 10 < Selectivity < 30)”, the IC50 [1] was under 50 nM and the IC50 [2] was 50 to 500 nM.

With `COc1cc(F)cc(C[C@H](NC(=O)CCn2cc(-c3ccccc3)nn2)B(O)O)c1` [Example 65, (R)-(2-(3-fluoro-5-methoxyphenyl)-1-(3-(4-phenyl-1H-1,2,3-triazol-1-yl)propanamido)ethyl)boronic acid] the “Selectivity LMP7 vs Beta5” value [1] was “++ (++: 10 < Selectivity < 30)”, the IC50 [1] was under 50 nM and the IC50 [2] was 50 to 500 nM.

With `CCOc1cccc(C[C@H](NC(=O)CCn2cnc3ccccc32)B(O)O)c1` [Example 67, (R)-(1-(3-(1H-benzo[d]imidazol-1-yl)propanamido)-2-(3-ethoxyphenyl)ethyl)boronic acid] the “Selectivity LMP7 vs Beta5” value [1] was “++ (++: 10 < Selectivity < 30)”, the IC50 [1] was under 50 nM and the IC50 [2] was 50 to 500 nM.

`CCOc1cccc(C[C@H](NC(=O)CCc2noc(-c3ccccc3)n2)B(O)O)c1` [Example 68, (R)-(2-(3-ethoxyphenyl)-1-(3-(5-phenyl-1,2,4-oxadiazol-3-yl)propanamido)ethyl)boronic acid] was tested, and the “Selectivity LMP7 vs Beta5” value [1] was “+++ (+++: Selectivity > 30)”, the IC50 [1] was under 50 nM and the IC50 [2] was 500 to 5000 nM.

For `COc1cc(C[C@H](NC(=O)CCn2cnc3ccccc32)B(O)O)ccc1F` [Example 69, (R)-(1-(3-(1H-benzo[d]imidazol-1-yl)propanamido)-2-(4-fluoro-3-methoxyphenyl)ethyl)boronic acid], the “Selectivity LMP7 vs Beta5” value [1] was “+ (+: Selectivity < 10)”, the IC50 [1] was 50 to 500 nM and the IC50 [2] was 500 to 5000 nM.

For `CCOc1cccc(CC(NC(=O)CCn2cc(-c3ccccc3)nn2)B(O)O)c1` (stereo not drawn) [Example 70, (2-(3-ethoxyphenyl)-1-(3-(4-phenyl-1H-1,2,3-triazol-1-yl)propanamido)ethyl)boronic acid], the “Selectivity LMP7 vs Beta5” value [1] was “++ (++: 10 < Selectivity < 30)”, the IC50 [1] was under 50 nM and the IC50 [2] was 50 to 500 nM.

For `O=C(CCn1cc(-c2ccccc2)nn1)N[C@@H](Cc1ccc(F)c(C(F)(F)F)c1)B(O)O` [Example 71, (R)-(2-(4-fluoro-3-(trifluoromethyl)phenyl)-1-(3-(4-phenyl-1H-1,2,3-triazol-1-yl)propanamido)ethyl)boronic acid], the “Selectivity LMP7 vs Beta5” value [1] was “++ (++: 10 < Selectivity < 30)”, the IC50 [1] was under 50 nM and the IC50 [2] was 50 to 500 nM.

In the case of `COc1cc(C[C@H](NC(=O)CCn2cnc3ccccc32)B(O)O)ccc1C` [Example 72, (R)-(1-(3-(1H-benzo[d]imidazol-1-yl)propanamido)-2-(3-methoxy-4-methylphenyl)ethyl)boronic acid], the “Selectivity LMP7 vs Beta5” value [1] is reported as “++ (++: 10 < Selectivity < 30)”, the IC50 [1] is reported as 50 to 500 nM and the IC50 [2] is reported as 500 to 5000 nM.

For `CCc1cccc(C[C@H](NC(=O)CCn2cc(-c3ccccc3OC)nn2)B(O)O)c1` [Example 73, (R)-(2-(3-ethylphenyl)-1-(3-(4-(2-methoxyphenyl)-1H-1,2,3-triazol-1-yl)propanamido)ethyl)boronic acid], the “Selectivity LMP7 vs Beta5” value [1] was “+++ (+++: Selectivity > 30)”, the IC50 [1] was under 50 nM and the IC50 [2] was 50 to 500 nM.

For `CCc1cccc(C[C@H](NC(=O)CCn2cc(-c3cccc(OC)c3)nn2)B(O)O)c1` [Example 74, (R)-(2-(3-ethylphenyl)-1-(3-(4-(3-methoxyphenyl)-1H-1,2,3-triazol-1-yl)propanamido)ethyl)boronic acid], the “Selectivity LMP7 vs Beta5” value [1] was “+++ (+++: Selectivity > 30)”, the IC50 [1] was under 50 nM and the IC50 [2] was 50 to 500 nM.

In the case of `CCc1cccc(C[C@H](NC(=O)CCn2cc(-c3ccc(OC)cc3)nn2)B(O)O)c1` [Example 75, (R)-(2-(3-ethylphenyl)-1-(3-(4-(4-methoxyphenyl)-1H-1,2,3-triazol-1-yl)propanamido)ethyl)boronic acid], the “Selectivity LMP7 vs Beta5” value [1] is reported as “+++ (+++: Selectivity > 30)”, the IC50 [1] is reported as under 50 nM and the IC50 [2] is reported as 50 to 500 nM.
